The text below walks through data of patent publication US20070248599A1 (priority 2006, published 2007).

What all share (type): cell-based, mouse
Assay [1] relates to N2a-APPsw cells. As to the kind of experiment: Cellular Aβ production in N2a-APPsw cells (Aβ40 ELISA of conditioned medium). Background: An ELISA detects its analyte on a solid surface through an enzyme-linked reagent.
Assay [2] deals with N2a-APPsw cells. The description is as above. To be noted: N2a-APPsw cells (FIG. 5D). The protocol: Quantification of β-Amyloid40, Neuro-2a cell stably overexpressing APPsw695 was used for detecting of β-Amyloid40. N2a-APPsw cells were grown in Dulbecco's Modified Eagle's medium (DMED) containing 10% fetal bovine serum, 100 U/mL penicillin, and 100 μg/mL streptomycin (GibcoBUR) with 80 μg/mL G418. Cells were cultured in 24-well plates one day before treatment. Transient transfections were done using FeGENE6 (Roche), fresh Optimum medium (Invitrogen) were supplied 5 h after transfection. Same concentration purified Apolipoprotein was added into the fresh medium. Conditioned medium was collected 24 h later. Aβ40 was quantified with sandwich ELISA by using Aβ40 ELISA Kit (Biosource). At least three times assays were done for each condition.
Cellular Aβ40 production. Neuroblastoma N2a-APPsw cells (from Dr. Riqiang Yan, Lerner Research Institute, Cleveland, Ohio) were cultured in 24-well plates in Dulbecco's Modified Eagle's medium (DMED) containing 10% fetal bovine serum, 100 U/mL penicillin, and 100 μg/mL streptomycin (GibcoBUR) with 80 μg/mL G418 one day before use. Transient transfections were done using FeGENE6 (Roche), fresh Optimum medium (Invitrogen) were supplied 5 h after transfection. Apolipoproteins were added in the fresh medium at 10 μg/mL. Conditioned medium was collected 24 h later. Aβ40 was determined in tripcates using Aβ40 ELISA Kit (Biosource). For studying the effect of PTB domain on Aβ production, N2a-APPsw cells were transfected with (0.4 μg/per well for 24 well plate) of PTB-containing vector before subjected to the above procedure.

Assay [3] relates to N2a-APPsw cells transfected with ApoER2 and β-secretase. As to the kind of experiment: Internalization of cell surface proteins (biotinylation, Western blot). As for the experimental part: Internalization of cell surface proteins. N2a-APPsw cells were transiently tranfected with ApoER2 and β-secretase with Lipfectamine 2000. […] Cells were then placed on ice, rinsed in cold PBS and incubated in PBS containing 1.5 mg/mL sulfo-NHS-LC-biotin (Pierce) for 20 min at 4° C. Cells were rinsed twice in PBS and lysed in 800 μl PBS containing 0.1% SDS, 1% NP40 and a complete protease inhibitor cocktail. Total protein concentration was determined by immunoblotting from an aliquot of 50 μl cell lysate. Biotinylated proteins were recovered with NeutrAvidin agarose (50 μl; Pierce), rinsed three times, eluted in 20 μl SDS-sample buffer at boiling temperature and used for Western-blot. Quantity of bands was determined by optical scanning instruments specified above. For the determination of internalized proteins, cells were prepared as above, rinsed in PBS and then incubated with cold 1.5 mg/mL cleavable biotin reagent in PBS (EZ-Link Sulfo-NHS-SS biotin, Pierce) for 20 min at 4° C. […] Cells were then lysed in 800 μl PBS containing 0.1% SDS, 1% NP40 and a complete protease inhibitor cocktail. After centrifugation, biotinylated proteins were retrieved by incubation with NeutrAvidin agarose (50 μl; Pierce). Isolated proteins were rinsed in buffer three times and boiled in 20 μl sample buffer for Western blots.
On the technique in general: In western blotting, separated proteins are transferred to a membrane and probed.

The test system is the same in assay [4]. The assay is described as above. To be noted: Western blot of conditioned medium (FIG. 6D).
The mark [5] stands for this setting: 10 μg/mL, internalization 15 min at 37° C. (FIG. 6B).

For the substance “ApoE: purified human apolipoprotein E, purchased from Biodesign / Alpha Diagnostic”, in assay [1] (5 μg/mL, N2a APPsw cells, p<0.05 (FIG. 4)), the “Aβ40 increase in cells transfected with ApoER2 versus blank vectors” value is “increase of Aβ40 at a greater extent”. For the same substance, the “Aβ40 levels in medium” value in assay [1] (5 μg/mL, blank vector transfected N2a APPsw cells vs control (FIG. 4)) is “increased over that in the control cells”. For the same substance, the Aβ production result in assay [1] (each at 5 μg/mL, 24 h, N2a-APPsw cells (FIG. 5B legend)) is recorded as “increased Aβ production”. Further, the “Aβ production in cells transfected with ApoER2 versus without” value in assay [2] is listed as “produced more Aβ”. For the same substance, in assay [3] (10 μg/mL, 2 h), the “total amounts of ApoER2, APP and β-secretase in the cell lysates” value is recorded as “remained about the same”. Moreover, the “decrease of remaining cell-surface β-secretase” value in assay [3] (10 μg/mL, 2 h, compared to controls (FIG. 6A)) was around 7%. In addition, in assay [3] (setting [5]), the “increase of intracellular APP” value is listed as “about 2.5 fold”, the “increase of intracellular ApoER2” value is “small increases” and the “increase of intracellular β-secretase” value is reported as “small increases”. For the same substance, the “intracellular APP C-terminal fragment C99” value in assay [3] (Western blot, over the control (FIG. 6C)) is listed as “significantly increased”. Moreover, the “APP ectodomain generated by ∝-secretase, s∝-APP” value in assay [4] is “reduction”.
